One block for each compound: values may come before it. The source made the active and inactive calls. The rule behind the calls is not given here. Where a SMILES comes first, the peptide text is derived from it.
What was measured:
[1] = biological target: Serine/threonine-protein kinase PLK1 (Homo sapiens, UniProt P53350); assay: Binding affinity to PLK1 PBD (unknown origin) by ITC method
UBR/PLK1 (Homo sapiens) [2] = assay: Protac activity at UBR/PLK1 in human HeLa cells assessed as PLK1 degradation at 50 uM by immunoblotting analysis; details: time 2-48 hrs, TDE = time-dependent effect
[3] = biological target: E3 ubiquitin-protein ligase UBR2 (Homo sapiens) (UniProt Q8IWV8); assay: Binding affinity to UBR2 (unknown origin) expressed in HEK293T cells incubated for 3 hrs by pull-down assay; type: cell-based
UBR/PLK1 (Homo sapiens) [4] = assay: Protac activity at UBR/PLK1 in human HeLa cells assessed as PLK1 degradation at 75 uM incubated for 24 hrs by immunoblotting analysis
UBR/PLK1 (Homo sapiens) [5] = assay: Protac activity at UBR/PLK1 in human HeLa cells assessed as PLK1 degradation incubated for 24 hrs by immunoblotting analysis; details: dose 25-100 µM
[6] = biological target: E3 ubiquitin-protein ligase UBR1 (Homo sapiens) (UniProt Q8IWV7); assay: Binding affinity to UBR1 (unknown origin) expressed in HEK293T cells incubated for 3 hrs by pull-down assay; type: cell-based
UBR/PLK1 (Homo sapiens) [7] = assay: Protac activity at UBR/PLK1 in human HeLa cells assessed as PLK1 degradation at 50 uM after 24 to 48 hrs by immunoblotting analysis; details: time 24-48 hrs
UBR/PLK1 (Homo sapiens) [8] = assay: Protac activity at UBR/PLK1 in human HeLa cells assessed as PLK1 degradation at 50 uM preincubated for 24 hrs followed by MG132 addition for 8 hrs by immunoblotting analysis; details: time 32.0 hrs
UBR/PLK1 (Homo sapiens) [9] = assay: Protac activity at UBR/PLK1 in human HeLa cells assessed as PLK1 degradation at 100 uM incubated for 24 hrs by immunoblotting analysis
UBR/PLK1 (Homo sapiens) [10] = assay: Protac activity at UBR/PLK1 in human HeLa cells assessed as PLK1 degradation at 50 uM incubated for 24 hrs by immunoblotting analysis
A549 [11] = assay: Cytotoxicity against human A549 cells at 0.8 to 50 uM incubated for 24 hrs by MTT assay; type: functional, cell-based; details: dose 0.8-50 µM
NCI-H1975 [12] = assay: Cytotoxicity against human NCI-H1975 cells assessed as change in morphology at 25 uM incubated for 24 hrs by phase contrast microscopic assay; type: functional, cell-based
PC-9 [13] = assay: Cytotoxicity against human PC-9 cells at 0.8 to 50 uM incubated for 24 hrs by MTT assay; type: functional, cell-based; details: dose 0.8-50 µM
NCI-H1975 [14] = assay: Cytotoxicity against human NCI-H1975 cells at 0.8 to 50 uM incubated for 24 hrs by MTT assay; type: functional, cell-based; details: dose 0.8-50 µM
HeLa [15] = assay: Cytotoxicity against human HeLa cells assessed as change in morphology at 18 uM incubated for 24 hrs by phase contrast microscopic assay; type: functional, cell-based
PC-9 [16] = assay: Cytotoxicity against human PC-9 cells assessed as change in morphology at 25 uM incubated for 24 hrs by phase contrast microscopic assay; type: functional, cell-based
NCI-H1975 [17] = assay: Induction of cell cycle arrest in human NCI-H1975 cells at 10 uM incubated for 24 hrs by PI staining based flow cytometry analysis; type: functional
PC-9 [18] = assay: Induction of cell cycle arrest in human PC-9 cells at 10 uM incubated for 24 hrs by PI staining based flow cytometry analysis; type: functional
A549 [19] = assay: Induction of cell cycle arrest in human A549 cells at 10 uM incubated for 24 hrs by PI staining based flow cytometry analysis; type: functional
HeLa [20] = assay: Induction of cell cycle arrest in human HeLa cells at 10 uM incubated for 24 hrs by PI staining based flow cytometry analysis; type: functional
A549 [21] = assay: Cytotoxicity against human A549 cells assessed as change in morphology at 25 uM incubated for 24 hrs by phase contrast microscopic assay; type: functional, cell-based
[22] = In vivo induction of PLK1 degradation in nude mouse xenografted with human NCI-H1975 cells assessed as reduction in PLK1 protein expression at 5 mg/kg, iv administered for every 3 days by Western blotting analysis; type: functional; parameters: scale not given: the % may be the effect or the level left

E3 ubiquitin-protein ligase UBR1 (Homo sapiens), sequence (Q8IWV7 whole entry): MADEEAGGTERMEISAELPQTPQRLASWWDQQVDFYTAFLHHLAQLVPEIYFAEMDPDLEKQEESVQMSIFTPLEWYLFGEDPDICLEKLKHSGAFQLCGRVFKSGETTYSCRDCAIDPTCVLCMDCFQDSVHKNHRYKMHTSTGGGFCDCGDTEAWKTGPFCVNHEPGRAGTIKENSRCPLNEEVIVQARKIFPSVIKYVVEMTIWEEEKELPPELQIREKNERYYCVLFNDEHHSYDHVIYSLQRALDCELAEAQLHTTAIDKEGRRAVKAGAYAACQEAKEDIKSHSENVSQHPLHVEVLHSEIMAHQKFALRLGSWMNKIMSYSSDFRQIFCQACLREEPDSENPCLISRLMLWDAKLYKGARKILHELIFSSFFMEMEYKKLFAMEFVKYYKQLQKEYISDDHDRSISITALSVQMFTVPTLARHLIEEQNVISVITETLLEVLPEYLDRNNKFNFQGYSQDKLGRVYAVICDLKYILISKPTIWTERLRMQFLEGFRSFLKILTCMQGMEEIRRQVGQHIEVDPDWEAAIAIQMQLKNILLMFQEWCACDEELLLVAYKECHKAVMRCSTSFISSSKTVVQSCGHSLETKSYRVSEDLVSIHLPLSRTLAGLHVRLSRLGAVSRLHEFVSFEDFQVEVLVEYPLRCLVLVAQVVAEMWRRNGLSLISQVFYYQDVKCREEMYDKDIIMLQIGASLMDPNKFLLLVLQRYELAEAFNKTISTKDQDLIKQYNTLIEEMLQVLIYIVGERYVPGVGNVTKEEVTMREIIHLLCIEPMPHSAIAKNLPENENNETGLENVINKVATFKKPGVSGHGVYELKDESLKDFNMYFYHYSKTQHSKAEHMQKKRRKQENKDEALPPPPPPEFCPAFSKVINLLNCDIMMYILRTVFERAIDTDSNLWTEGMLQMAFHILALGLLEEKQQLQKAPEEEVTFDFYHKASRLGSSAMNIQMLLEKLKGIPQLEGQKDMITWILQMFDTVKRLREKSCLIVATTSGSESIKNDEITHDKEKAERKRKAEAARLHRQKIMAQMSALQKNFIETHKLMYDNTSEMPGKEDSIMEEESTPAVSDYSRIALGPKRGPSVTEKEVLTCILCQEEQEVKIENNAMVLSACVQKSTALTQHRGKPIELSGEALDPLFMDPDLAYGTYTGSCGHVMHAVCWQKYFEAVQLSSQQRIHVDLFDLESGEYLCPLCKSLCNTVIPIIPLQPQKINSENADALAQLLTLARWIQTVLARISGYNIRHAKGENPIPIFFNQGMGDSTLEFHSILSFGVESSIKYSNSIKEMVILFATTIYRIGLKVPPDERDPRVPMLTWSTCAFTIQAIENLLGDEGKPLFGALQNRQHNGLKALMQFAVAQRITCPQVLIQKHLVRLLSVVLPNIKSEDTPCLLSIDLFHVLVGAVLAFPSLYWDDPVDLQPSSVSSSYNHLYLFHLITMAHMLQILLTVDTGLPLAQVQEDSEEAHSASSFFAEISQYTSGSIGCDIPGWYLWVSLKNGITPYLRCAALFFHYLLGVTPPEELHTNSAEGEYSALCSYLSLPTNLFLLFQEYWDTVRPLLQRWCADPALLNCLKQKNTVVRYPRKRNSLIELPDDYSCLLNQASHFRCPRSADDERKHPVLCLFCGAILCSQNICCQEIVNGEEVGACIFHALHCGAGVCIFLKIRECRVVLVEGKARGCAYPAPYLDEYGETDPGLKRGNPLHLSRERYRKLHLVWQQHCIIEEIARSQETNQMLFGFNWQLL
Serine/threonine-protein kinase PLK1, sequence (P53350 whole entry): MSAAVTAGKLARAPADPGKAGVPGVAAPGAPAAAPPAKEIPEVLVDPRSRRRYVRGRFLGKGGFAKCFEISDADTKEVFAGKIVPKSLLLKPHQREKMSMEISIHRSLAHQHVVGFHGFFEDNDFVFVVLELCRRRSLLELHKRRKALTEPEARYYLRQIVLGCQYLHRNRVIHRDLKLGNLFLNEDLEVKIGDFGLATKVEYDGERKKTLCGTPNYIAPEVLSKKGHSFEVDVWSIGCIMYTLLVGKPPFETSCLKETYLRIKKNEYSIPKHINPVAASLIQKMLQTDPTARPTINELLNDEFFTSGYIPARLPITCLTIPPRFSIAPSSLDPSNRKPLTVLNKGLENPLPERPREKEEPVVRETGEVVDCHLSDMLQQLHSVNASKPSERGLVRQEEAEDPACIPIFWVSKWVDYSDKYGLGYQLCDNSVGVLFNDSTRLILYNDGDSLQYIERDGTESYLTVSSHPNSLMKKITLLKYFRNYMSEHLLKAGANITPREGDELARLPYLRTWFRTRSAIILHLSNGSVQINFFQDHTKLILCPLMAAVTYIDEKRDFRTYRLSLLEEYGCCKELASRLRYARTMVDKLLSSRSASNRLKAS
E3 ubiquitin-protein ligase UBR2 (Homo sapiens), sequence (Q8IWV8 whole entry): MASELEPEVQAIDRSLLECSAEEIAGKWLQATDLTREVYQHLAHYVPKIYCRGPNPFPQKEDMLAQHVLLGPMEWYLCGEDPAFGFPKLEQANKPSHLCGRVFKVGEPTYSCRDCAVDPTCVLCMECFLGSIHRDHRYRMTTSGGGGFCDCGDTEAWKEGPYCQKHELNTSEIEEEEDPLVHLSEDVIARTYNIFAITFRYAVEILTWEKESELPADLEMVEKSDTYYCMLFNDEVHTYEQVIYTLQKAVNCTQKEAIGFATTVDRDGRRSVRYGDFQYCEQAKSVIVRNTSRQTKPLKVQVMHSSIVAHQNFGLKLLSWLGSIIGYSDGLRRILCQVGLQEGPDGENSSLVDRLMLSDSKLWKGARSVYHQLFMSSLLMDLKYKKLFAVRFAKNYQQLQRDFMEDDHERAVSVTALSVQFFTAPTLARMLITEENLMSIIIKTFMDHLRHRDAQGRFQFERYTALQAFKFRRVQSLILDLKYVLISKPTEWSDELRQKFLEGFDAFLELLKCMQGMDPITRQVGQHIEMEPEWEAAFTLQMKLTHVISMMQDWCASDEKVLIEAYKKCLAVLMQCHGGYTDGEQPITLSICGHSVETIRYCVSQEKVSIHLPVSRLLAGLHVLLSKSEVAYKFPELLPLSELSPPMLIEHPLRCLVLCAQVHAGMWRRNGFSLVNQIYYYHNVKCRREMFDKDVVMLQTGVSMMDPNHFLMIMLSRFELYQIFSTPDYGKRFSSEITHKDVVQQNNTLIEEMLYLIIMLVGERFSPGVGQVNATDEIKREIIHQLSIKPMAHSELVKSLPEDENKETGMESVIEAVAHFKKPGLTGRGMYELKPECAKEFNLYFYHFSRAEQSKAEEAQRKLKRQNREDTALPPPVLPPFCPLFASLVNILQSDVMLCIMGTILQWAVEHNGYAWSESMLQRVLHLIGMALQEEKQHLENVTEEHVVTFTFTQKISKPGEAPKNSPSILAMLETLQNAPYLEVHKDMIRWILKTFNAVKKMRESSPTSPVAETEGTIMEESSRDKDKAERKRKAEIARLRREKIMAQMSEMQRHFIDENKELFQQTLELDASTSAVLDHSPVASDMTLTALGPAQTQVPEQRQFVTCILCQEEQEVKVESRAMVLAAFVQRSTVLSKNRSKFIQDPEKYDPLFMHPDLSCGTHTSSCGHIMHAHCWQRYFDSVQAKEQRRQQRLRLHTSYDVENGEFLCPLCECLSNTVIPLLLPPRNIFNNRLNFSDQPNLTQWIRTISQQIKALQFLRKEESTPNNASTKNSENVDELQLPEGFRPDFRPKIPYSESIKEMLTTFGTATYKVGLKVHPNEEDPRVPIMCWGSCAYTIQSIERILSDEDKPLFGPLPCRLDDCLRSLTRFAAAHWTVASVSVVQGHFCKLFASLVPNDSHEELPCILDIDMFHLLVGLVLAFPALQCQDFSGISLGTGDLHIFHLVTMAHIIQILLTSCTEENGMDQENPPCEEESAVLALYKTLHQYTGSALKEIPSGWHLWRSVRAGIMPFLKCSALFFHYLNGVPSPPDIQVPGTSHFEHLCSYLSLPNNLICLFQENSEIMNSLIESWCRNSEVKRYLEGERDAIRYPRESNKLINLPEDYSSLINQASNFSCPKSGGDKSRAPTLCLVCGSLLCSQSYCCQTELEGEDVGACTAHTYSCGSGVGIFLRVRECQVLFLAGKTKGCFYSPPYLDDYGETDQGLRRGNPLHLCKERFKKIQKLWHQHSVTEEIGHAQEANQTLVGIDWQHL

Kd [1]: 2.2 µM
SMILES: CC(C)C[C@H](NC(=O)[C@@H]1CCCN1C(=O)CCCCCNC(=O)[C@H](CCCNC(=N)N)NC(=O)[C@H](CCCNC(=N)N)NC(=O)[C@H](CCCNC(=N)N)NC(=O)[C@H](CCCNC(=N)N)NC(=O)[C@H](CCCNC(=N)N)NC(=O)[C@H](CCCNC(=N)N)NC(=O)[C@H](CCCNC(=N)N)NC(=O)[C@H](CCCNC(=N)N)NC(=O)[C@H](CCCNC(=N)N)NC(=O)[C@H](CCCNC(=N)N)NC(=O)[C@H](CCCNC(=N)N)NC(=O)[C@@H](N)CCCNC(=N)N)C(=O)N[C@@H](Cc1cnc[nH]1)C(=O)N[C@@H](CO)C(=O)N[C@H](C(N)=O)[C@@H](C)OP(=O)(O)O

Activity (UBR/PLK1 (Homo sapiens) [2]): Tde
Activity [3]: Active
Activity (UBR/PLK1 (Homo sapiens) [4]): 70%
Activity (UBR/PLK1 (Homo sapiens) [5]): Dose-Dependent Effect
Activity [6]: Active
Activity (UBR/PLK1 (Homo sapiens) [7]): 90%
Activity (UBR/PLK1 (Homo sapiens) [8]): inactive
Activity (UBR/PLK1 (Homo sapiens) [9]): 70%
Activity (UBR/PLK1 (Homo sapiens) [10]): 60%
SMILES: CC(C)C[C@H](NC(=O)[C@H]1CCCN1C(=O)CCCCCNC(=O)[C@H](CCCNC(=N)N)NC(=O)[C@H](CCCNC(=N)N)NC(=O)[C@H](CCCNC(=N)N)NC(=O)[C@H](CCCNC(=N)N)NC(=O)[C@H](CCCNC(=N)N)NC(=O)[C@H](CCCNC(=N)N)NC(=O)[C@H](CCCNC(=N)N)NC(=O)[C@H](CCCNC(=N)N)NC(=O)[C@H](CCCNC(=N)N)NC(=O)[C@H](CCCNC(=N)N)NC(=O)[C@H](CCCNC(=N)N)NC(=O)[C@@H](N)CCCNC(=N)N)C(=O)N[C@@H](Cc1cnc[nH]1)C(=O)N[C@@H](CO)C(=O)N[C@H](C(N)=O)[C@@H](C)OP(=O)(O)O

SMILES: N=C(N)NCCC[C@H](NC(=O)[C@H](CCCNC(=N)N)NC(=O)[C@H](CCCNC(=N)N)NC(=O)[C@H](CCCNC(=N)N)NC(=O)[C@H](CCCNC(=N)N)NC(=O)[C@H](CCCNC(=N)N)NC(=O)[C@H](CCCNC(=N)N)NC(=O)[C@H](CCCNC(=N)N)NC(=O)[C@H](CCCNC(=N)N)NC(=O)[C@H](CCCNC(=N)N)NC(=O)[C@H](CCCNC(=N)N)NC(=O)[C@@H](N)CCCNC(=N)N)C(N)=O
Activity (A549 [11]): inactive
Activity (NCI-H1975 [12]): inactive
Activity (PC-9 [13]): inactive
Activity (NCI-H1975 [14]): inactive
Activity (HeLa [15]): inactive
Activity (PC-9 [16]): inactive
Activity (NCI-H1975 [17]): inactive
Activity (PC-9 [18]): inactive
Activity (A549 [19]): inactive
Activity (HeLa [20]): inactive
Activity (A549 [21]): inactive

SMILES: C[C@@H](OP(=O)(O)O)[C@@H]1NC(=O)[C@H](Cc2cncn2CCCCCCCCc2ccccc2)NC(=O)[C@@H](N)CCC(=O)NCCCC[C@@H](C(N)=O)NC1=O (HELM PEPTIDE1{E.[O=C([C@H](Cc1cncn1CCCCCCCCc1ccccc1)N[*:1])[*:2]].[C[C@@H](OP(=O)(O)O)[C@H](N[*:1])C(=O)[*:2]].K.[am]}$PEPTIDE1,PEPTIDE1,1:R3-4:R3$$$V2.0)
Activity (A549 [11]): inactive
Activity (NCI-H1975 [12]): inactive
Activity (PC-9 [13]): inactive
Activity (NCI-H1975 [14]): inactive
Activity (HeLa [15]): inactive
Activity (PC-9 [16]): inactive
Activity (A549 [21]): inactive

SMILES: C=CC(=O)Nc1cc(Nc2nccc(-c3cn(C)c4ccccc34)n2)c(OC)cc1N(C)CCN(C)C [OSIMERTINIB]
Activity [22]: >60%
